From the NIST ThermoML archive (doi:10.1021/acs.jced.8b00132)
“And” between values parts separate entries of the source, which are not always exact repeats. Equal values may be shown once.

O=C(C(F)(F)C(F)(F)F)C(F)(C(F)(F)F)C(F)(F)F [dodecafluoro-2-methylpentan-3-one]
Settings	thermal conductivity
433.25 K, 43 kPa, Gas, hot wire	0.02108 W/m/K
433.25 K, 156 kPa, Gas, hot wire	0.02107 W/m/K
433.27 K, 1298 kPa, Gas, transient hot wire	0.02415 W/m/K
433.28 K, 371 kPa, Gas, hot wire	0.0228 W/m/K and 0.02281 W/m/K
433.28 K, 922 kPa, Gas, transient hot wire	0.02221 W/m/K
433.28 K, 49421 kPa, Liquid, transient hot wire	0.0643 W/m/K
433.29 K, 49444 kPa, Liquid, transient hot wire	0.06433 W/m/K
433.3 K, 9673 kPa, Liquid, transient hot wire	0.04596 W/m/K
433.3 K, 22710 kPa, Liquid, transient hot wire	0.05348 W/m/K
433.31 K, 9675 kPa, Liquid, transient hot wire	0.04592 W/m/K
433.35 K, 1138 kPa, Gas, transient hot wire	0.02299 W/m/K
433.36 K, 15082 kPa, Liquid, transient hot wire	0.04913 W/m/K
433.36 K, 22714 kPa, Liquid, transient hot wire	0.0536 W/m/K
433.37 K, 162 kPa, Gas, hot wire	0.02126 W/m/K
433.37 K, 1138 kPa, Gas, transient hot wire	0.02295 W/m/K
433.37 K, 15085 kPa, Liquid, transient hot wire	0.04954 W/m/K
433.38 K, 43 kPa, Gas, hot wire	0.02108 W/m/K
433.38 K, 159 kPa, Gas, hot wire	0.02129 W/m/K
433.38 K, 6166 kPa, Liquid, transient hot wire	0.04304 W/m/K
433.39 K, 43 kPa, Gas, hot wire	0.02105 W/m/K
433.39 K, 6163 kPa, Liquid, transient hot wire	0.04307 W/m/K
433.41 K, 34187 kPa, Liquid, transient hot wire	0.05868 W/m/K
433.43 K, 922 kPa, Gas, transient hot wire	0.02216 W/m/K
433.43 K, 34200 kPa, Liquid, transient hot wire	0.05865 W/m/K
433.44 K, 922 kPa, Gas, transient hot wire	0.02224 W/m/K
433.45 K, 3945 kPa, Liquid, transient hot wire	0.04079 W/m/K
433.46 K, 3946 kPa, Liquid, transient hot wire	0.04082 W/m/K
433.49 K, 9685 kPa, Liquid, transient hot wire	0.046 W/m/K
433.5 K, 375 kPa, Gas, transient hot wire	0.02215 W/m/K
433.5 K, 9681 kPa, Liquid, transient hot wire	0.04597 W/m/K
433.51 K, 377 kPa, Gas, transient hot wire	0.02227 W/m/K
433.52 K, 1139 kPa, Gas, transient hot wire	0.02308 W/m/K and 0.02311 W/m/K
433.53 K, 654 kPa, Gas, transient hot wire	0.02193 W/m/K
433.53 K, 655 kPa, Gas, transient hot wire	0.02205 W/m/K
433.55 K, 15079 kPa, Liquid, transient hot wire	0.04951 W/m/K
433.55 K, 15081 kPa, Liquid, transient hot wire	0.04953 W/m/K
433.55 K, 22699 kPa, Liquid, transient hot wire	0.05365 W/m/K
433.55 K, 22714 kPa, Liquid, transient hot wire	0.05356 W/m/K
433.59 K, 6168 kPa, Liquid, transient hot wire	0.04309 W/m/K
433.59 K, 6172 kPa, Liquid, transient hot wire	0.04309 W/m/K
433.6 K, 922 kPa, Gas, transient hot wire	0.02237 W/m/K
433.69 K, 1141 kPa, Gas, transient hot wire	0.02332 W/m/K
433.7 K, 374 kPa, Gas, transient hot wire	0.02216 W/m/K
433.7 K, 375 kPa, Gas, transient hot wire	0.02227 W/m/K
433.7 K, 1140 kPa, Gas, transient hot wire	0.02335 W/m/K
433.7 K, 9688 kPa, Liquid, transient hot wire	0.04596 W/m/K
433.7 K, 9691 kPa, Liquid, transient hot wire	0.046 W/m/K
433.72 K, 652 kPa, Gas, transient hot wire	0.02204 W/m/K
433.74 K, 651 kPa, Gas, transient hot wire	0.02205 W/m/K
433.76 K, 15088 kPa, Liquid, transient hot wire	0.04948 W/m/K
433.76 K, 15091 kPa, Liquid, transient hot wire	0.04951 W/m/K
433.79 K, 922 kPa, Gas, transient hot wire	0.02242 W/m/K
433.81 K, 6177 kPa, Liquid, transient hot wire	0.04299 W/m/K
433.82 K, 6182 kPa, Liquid, transient hot wire	0.04309 W/m/K
433.87 K, 1141 kPa, Gas, transient hot wire	0.02354 W/m/K
433.88 K, 1141 kPa, Gas, transient hot wire	0.02356 W/m/K
433.89 K, 373 kPa, Gas, transient hot wire	0.02231 W/m/K
433.9 K, 373 kPa, Gas, transient hot wire	0.02227 W/m/K
433.92 K, 9693 kPa, Liquid, transient hot wire	0.04597 W/m/K
433.92 K, 9695 kPa, Liquid, transient hot wire	0.04596 W/m/K
433.94 K, 648 kPa, Gas, transient hot wire	0.02211 W/m/K
433.94 K, 649 kPa, Gas, transient hot wire	0.02204 W/m/K
433.96 K, 922 kPa, Gas, transient hot wire	0.02254 W/m/K
433.98 K, 922 kPa, Gas, transient hot wire	0.02253 W/m/K
434.12 K, 372 kPa, Gas, transient hot wire	0.02229 W/m/K and 0.02228 W/m/K
434.14 K, 645 kPa, Gas, transient hot wire	0.02216 W/m/K
434.14 K, 646 kPa, Gas, transient hot wire	0.02214 W/m/K
434.33 K, 371 kPa, Gas, transient hot wire	0.02233 W/m/K
434.35 K, 371 kPa, Gas, transient hot wire	0.02232 W/m/K
452.91 K, 2283 kPa, Gas, transient hot wire	0.03823 W/m/K
452.94 K, 2214 kPa, Gas, transient hot wire	0.03736 W/m/K
452.96 K, 2283 kPa, Gas, transient hot wire	0.03736 W/m/K
452.98 K, 2213 kPa, Gas, transient hot wire	0.03655 W/m/K
452.99 K, 2283 kPa, Gas, transient hot wire	0.03849 W/m/K
452.99 K, 2349 kPa, Gas, transient hot wire	0.03688 W/m/K
453 K, 2137 kPa, Gas, transient hot wire	0.033 W/m/K
453 K, 2214 kPa, Gas, transient hot wire	0.0364 W/m/K
453 K, 2283 kPa, Gas, transient hot wire	0.03799 W/m/K
453.01 K, 2349 kPa, Gas, transient hot wire	0.03694 W/m/K
453.01 K, 2431 kPa, Gas, transient hot wire	0.0358 W/m/K
453.03 K, 2213 kPa, Gas, transient hot wire	0.03832 W/m/K
453.03 K, 2432 kPa, Gas, transient hot wire	0.03591 W/m/K
453.04 K, 2137 kPa, Gas, transient hot wire	0.03326 W/m/K
453.04 K, 2213 kPa, Gas, transient hot wire	0.0384 W/m/K and 0.03766 W/m/K
